Laboratory results published in patent US20260167615A1, “COMPOUNDS AND COMPOSITIONS AS GPR52 MODULATORS” (Neurocrine Biosciences, Inc., priority 2022, published 2026).

Target: recombinant human GPR52 (Homo sapiens, UniProt Q9Y2T5)
Experiment: HTRF cAMP assay, GPR52 activity (Example A)
Assay type: cell-based
Details: for EC50: average EC50 (n=1 to 15), Flp-In-CHO cells stably expressing recombinant human GPR52, cAMP HTRF, read-out: EC50 (N=); for Emax: maximum cAMP at 10 μM or 31.6 μM test compound, as percentage of Emax of control compound 4-(3-(3-fluoro-5-(trifluoromethyl)benzyl)-5-methyl-4,5-dihydro-1H-1,2,4-triazol-1-yl)-2-methylbenzamide
Procedure, shortened: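 Flp-In CHO cells stably expressing human GPR52 (20,000/well) incubated 30 min at room temperature with compound, cAMP then quantified by competitive HTRF. EC50 from nonlinear fits of cAMP-transformed data normalized to positive control; Emax is top plateau at 10 or 31.6 μM, given as % of a reference agonist's Emax.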

Sequence of recombinant human GPR52 (Q9Y2T5 whole entry): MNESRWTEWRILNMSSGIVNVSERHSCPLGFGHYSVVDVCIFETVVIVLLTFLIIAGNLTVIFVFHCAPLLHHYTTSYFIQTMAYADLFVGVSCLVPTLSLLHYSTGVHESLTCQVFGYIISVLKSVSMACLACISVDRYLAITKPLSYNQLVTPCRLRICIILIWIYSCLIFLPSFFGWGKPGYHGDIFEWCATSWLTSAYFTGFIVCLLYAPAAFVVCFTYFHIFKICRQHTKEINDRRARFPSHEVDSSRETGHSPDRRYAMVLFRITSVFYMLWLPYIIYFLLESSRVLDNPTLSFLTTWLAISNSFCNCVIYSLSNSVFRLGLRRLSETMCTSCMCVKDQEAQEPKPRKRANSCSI

EC50 [nM] | Emax [%] | Structure (SMILES)
101 to 1000 | 110 | CCc1cc(-c2cc(Oc3cnc4ccc(F)cc4c3)ccn2)ccc1C(N)=O [Example 104, 2-ethyl-4-(4-((6-fluoroquinolin-3-yl)oxy)pyridin-2-yl)benzamide]
101 to 1000 | 51 | Cc1cc(-c2cc(Oc3cnc4ccc(F)cc4c3)ccn2)ccc1C(N)=O [Example 105, 4-(4-((6-fluoroquinolin-3-yl)oxy)pyridin-2-yl)-2-methylbenzamide]
101 to 1000 | 100 | CCc1cc(-c2cc(Oc3ccc4ncccc4c3F)ccn2)ccc1C(N)=O [Example 106, 2-ethyl-4-(4-((5-fluoroquinolin-6-yl)oxy)pyridin-2-yl)benzamide]
25 to 100 | 146 | CCc1cc(-c2cc(Oc3ccc4ncc(C)cc4c3)ccn2)ccc1C(N)=O [Example 107, 2-ethyl-4-(4-((3-methylquinolin-6-yl)oxy)pyridin-2-yl)benzamide]
101 to 1000 | 150 | Cc1cnc2ccc(Oc3ccnc(-c4ccc(C(N)=O)c(C)c4)c3)cc2c1 [Example 108, 2-methyl-4-(4-((3-methylquinolin-6-yl)oxy)pyridin-2-yl)benzamide]
101 to 1000 | 75 | CCc1cc(-c2cc(Oc3cnc4c(C(F)(F)F)cccc4c3)ccn2)ccc1C(N)=O [Example 109, 2-ethyl-4-(4-((8-(trifluoromethyl)quinolin-3-yl)oxy)pyridin-2-yl)benzamide]
101 to 1000 | 137 | CCc1cc(-c2cc(Oc3cnc4ccc(Cl)cc4c3)ccn2)ccc1C(N)=O [Example 110, 4-(4-((6-chloroquinolin-3-yl)oxy)pyridin-2-yl)-2-ethylbenzamide]
101 to 1000 | 88 | Cc1cc(-c2cc(Oc3cnc4ccc(Cl)cc4c3)ccn2)ccc1C(N)=O [Example 111, 4-(4-((6-chloroquinolin-3-yl)oxy)pyridin-2-yl)-2-methylbenzamide]
101 to 1000 | 100 | CCc1cc(-c2cc(Oc3cnc4c(Cl)cccc4c3)ccn2)ccc1C(N)=O [Example 112, 4-(4-((8-chloroquinolin-3-yl)oxy)pyridin-2-yl)-2-ethylbenzamide]
101 to 1000 | 95 | CCc1cc(-c2cc(Oc3cnc4cc(F)c(F)cc4c3)ccn2)ccc1C(N)=O [Example 113, 4-(4-((6,7-difluoroquinolin-3-yl)oxy)pyridin-2-yl)-2-ethylbenzamide]
25 to 100 | 50 | Cc1cc(-c2cc(Oc3cnc4cc(F)c(F)cc4c3)ccn2)ccc1C(N)=O [Example 114, 4-(4-((6,7-difluoroquinolin-3-yl)oxy)pyridin-2-yl)-2-methylbenzamide]
101 to 1000 | 100 | CCc1cc(-c2cc(Oc3cnc4c(F)c(F)ccc4c3)ccn2)ccc1C(N)=O [Example 115, 4-(4-((7,8-difluoroquinolin-3-yl)oxy)pyridin-2-yl)-2-ethylbenzamide]
25 to 100 | 62 | Cc1cc(-c2cc(Oc3cnc4c(F)c(F)ccc4c3)ccn2)ccc1C(N)=O [Example 116, 4-(4-((7,8-difluoroquinolin-3-yl)oxy)pyridin-2-yl)-2-methylbenzamide]
101 to 1000 | 115 | CCc1cc(-c2cc(Oc3cnc4c(F)cc(F)cc4c3)ccn2)ccc1C(N)=O [Example 117, 4-(4-((6,8-difluoroquinolin-3-yl)oxy)pyridin-2-yl)-2-ethylbenzamide]
101 to 1000 | 85 | Cc1cc(-c2cc(Oc3cnc4c(F)cc(F)cc4c3)ccn2)ccc1C(N)=O [Example 118, 4-(4-((6,8-difluoroquinolin-3-yl)oxy)pyridin-2-yl)-2-methylbenzamide]
101 to 1000 | 120 | Cc1cc(-c2cc(Oc3cc(F)c4ncc(F)cc4c3)ccn2)ccc1C(N)=O [Example 119, 4-(4-((3,8-difluoroquinolin-6-yl)oxy)pyridin-2-yl)-2-methylbenzamide]
101 to 1000 | 155 | CCc1cc(-c2cc(Oc3cc(F)c4ncc(F)cc4c3)ccn2)ccc1C(N)=O [Example 120, 4-(4-((3,8-difluoroquinolin-6-yl)oxy)pyridin-2-yl)-2-ethylbenzamide]
1000 to 2000 | 78 | Cc1cc(-c2cc(Oc3cnc4c(c3)C=C(F)CC4)ccn2)ccc1C(N)=O [Example 121, 4-(4-((6-fluoro-7,8-dihydroquinolin-3-yl)oxy)pyridin-2-yl)-2-methylbenzamide]
101 to 1000 | 121 | CCc1cc(-c2cc(Oc3cnc4c(c3)C=C(F)CC4)ccn2)ccc1C(N)=O [Example 122, 2-ethyl-4-(4-((6-fluoro-7,8-dihydroquinolin-3-yl)oxy)pyridin-2-yl)benzamide]
101 to 1000 | 88 | CCc1cc(-c2cc(Oc3cnc4c(c3)CCCO4)ccn2)ccc1C(N)=O [Example 123, 4-(4-((3,4-dihydro-2H-pyrano[2,3-b]pyridin-6-yl)oxy)pyridin-2-yl)-2-ethylbenzamide]
1000 to 2000 | 100 | Cc1cc(-c2cc(Oc3ccc4ncncc4c3)ccn2)ccc1C(N)=O [Example 124, 2-methyl-4-(4-(quinazolin-6-yloxy)pyridin-2-yl)benzamide]
101 to 1000 | 90 | CCc1cc(-c2cc(Oc3ccc4nccnc4c3)ccn2)ccc1C(N)=O [Example 125, 2-ethyl-4-(4-(quinoxalin-6-yloxy)pyridin-2-yl)benzamide]
101 to 1000 | 103 | Cc1cc(-c2cc(Oc3cnc4c(c3)c(F)nn4C)ccn2)ccc1C(N)=O [Example 126, 4-(4-((3-fluoro-1-methyl-1H-pyrazolo[3,4-b]pyridin-5-yl)oxy)pyridin-2-yl)-2-methylbenzamide]
101 to 1000 | 116 | Cc1cc(-c2cc(Oc3cnc4c(F)nn(C)c4c3)ccn2)ccc1C(N)=O [Example 127, 4-(4-((3-fluoro-1-methyl-1H-pyrazolo[4,3-b]pyridin-6-yl)oxy)pyridin-2-yl)-2-methylbenzamide]
25 to 100 | 118 | Cc1cc(-c2cc(Oc3ccc4c(F)nn(C)c4c3)ccn2)ccc1C(N)=O [Example 128, 4-(4-((3-fluoro-1-methyl-1H-indazol-6-yl)oxy)pyridin-2-yl)-2-methylbenzamide]
101 to 1000 | 126 | Cc1cc(-c2cc(Oc3ccc4c(c3)c(F)nn4C)ccn2)ccc1C(N)=O [Example 129, 4-(4-((3-fluoro-1-methyl-1H-indazol-5-yl)oxy)pyridin-2-yl)-2-methylbenzamide]
101 to 1000 | 137 | CCc1cc(-c2cc(Oc3cnc4c(c3)c(F)nn4C)ccn2)ccc1C(N)=O [Example 130, 2-ethyl-4-(4-((3-fluoro-1-methyl-1H-pyrazolo[3,4-b]pyridin-5-yl)oxy)pyridin-2-yl)benzamide]
101 to 1000 | 114 | CCc1cc(-c2cc(Oc3cnc4c(F)nn(C)c4c3)ccn2)ccc1C(N)=O [Example 131, 2-ethyl-4-(4-((3-fluoro-1-methyl-1H-pyrazolo[4,3-b]pyridin-6-yl)oxy)pyridin-2-yl)benzamide]
25 to 100 | 110 | CCc1cc(-c2cc(Oc3ccc4c(F)nn(C)c4c3)ccn2)ccc1C(N)=O [Example 132, 2-ethyl-4-(4-((3-fluoro-1-methyl-1H-indazol-6-yl)oxy)pyridin-2-yl)benzamide]
